Reference: patent publication US20230405078A1, “DETECTION AND TREATMENT OF INTESTINAL FIBROSIS” (THE REGENTS OF THE UNIVERSITY OF CALIFORNIA, priority 2020, published 2023)
“Also recorded” adds a separate entry of the source. Where no end group is shown, it is not given here.

Experiments:
TNBS-treated mice = experiment: TNBS-associated colonic fibrosis in mice; assay type: in vivo
Experimental: Eight-week-old male and female CD-1 mice (#022, Charles River Laboratories) were injected with 50pL TNBS solution (to induce colonic fibrosis) or 30% ethanol (vehicle) via enema weekly for five weeks. After the last TNBS injection, the mice were held for two additional weeks to develop colonic fibrosis. Some of the mice were injected with 5 μg/mouse of either control (PS100001) or elafin-expressing construct (RC203136) from
Origene via InvivoJetPEI transfection reagent (201-10G, Polyplus) intracolonically on the 9th day after the last TNBS injection or five days before the end of experiment.
Some of the mice received either a single intraperitoneal injection of 10 mg/kg anti-tumor necrosis factor-alpha (anti-TNFα) neutralizing antibody (6E0058, BioXCell) or oral antibiotic mixture in drinking water ad libitum from the 9th day after the last TNBS injection to the endpoint of the experiment. The antibiotics mixture contains kanamycin (0.4 mg/mL), gentamicin (0.035 mg/mL), colistin (850 U/mL), metronidazole (0.215 mg/mL), and vancomycin (0.045 mg/mL), which was routinely used by our laboratory for suppressing intestinal microbiota.
For PAR1/2 activation, some of the mice were injected with DMSO (50pL/mouse), 5 mg/kg PAR1 agonist TRAP-6, or 5 mg/kg PAR2 agonist SLIGKV-NH2 via enema on the 9th, 11th, and 13th days after the last TNBS injection.
For miRNA inhibition, some of the mice were injected with 5 mg/kg either control inhibitor or miR205-5p power inhibitor (Qiagen) […] via enema on the 9th, 11th, and 13th days after the last TNBS injection.
For Zeb1 manipulation, some mice received a single intraperitoneal injection (10^7 infectious units/mouse) of control lentivirus (PS100064V), Zeb1-overexpressing lentivirus (MR223095L2V), or Zeb1-shRNA lentivirus (TL513177V) from Origene, Inc. nine days after the last TNBS injection.
Dr. Xingguo Cheng produced the oral elafin-Eudragit-FS3OD formulation via a material transfer agreement (UCLA MTA2019-00000337) with the Southwest Research Institute (SWRI) in Texas. […] The mice were fed with either control-Eudragit or elafin-Eudragit in mildly acidified (pH 5) water containing 0.5% hydroxypropyl methylcellulose (HPMC) daily via oral gavage during the last five days of the experiment.
H&E and Masson Trichrome (MT) staining were performed as described previously. Microphotographs were recorded at multiple locations and scored by two investigators blindly. Intestinal injuries were scored (0-12). The severity of intestinal fibrosis was assessed by MT staining and scored (0-3). ZEB1 immunohistochemistry was performed using an anti-ZEB1 antibody (HPA027524, Sigma).
Total RNA was isolated by an RNeasy kit (#74104, Qiagen) and reverse transcribed into cDNA by a high-capacity cDNA reverse transcription kit (#4368813, ThermoFisher). PCR reactions were run with Taq Universal SYBR Green Supermix (1725120, Bio-Rad) and TaqMan real-time PCR assays (ThermoFisher) in a Bio-Rad CFX384 system. For the determination of miRNA expression, RNA was converted to cDNA using miRCURY LNA RT kit. PCR reactions were run with miRCURY LNA SYBR Green PCR kit and miRCURY LNA PCR assays (Qiagen). Relative mRNA/miRNA quantification was performed by comparing test groups and control groups after normalization with endogenous control genes. The fold changes are expressed as […]. […]
Overall disease activity (ODA) was calculated by % change of histology and fibrosis scores and colonic mRNA expression of fibrosis- and inflammation-related genes. […]

[1] = system: primary stricturing CD patient-derived colonic fibroblasts; experiment: Fibrogenesis in CDSE-treated primary stricturing CD patient-derived colonic fibroblasts; assay type: cell-based, human
Experimental: Stricturing CD patient-derived primary colonic fibroblasts (CD-HIFs) were obtained from Cleveland Clinic via material transfer agreement (MTA2020-00000154) and under
(§1) Cleveland Clinic IRB directives (IRB #17-1167). Primary non-IBD patient-derived colonic fibroblasts (H6231) were purchased from Cell Biologics. All primary colonic fibroblasts were cultured in fibroblast medium (M2267, Cell Biologics). Human colonic CCD-18Co fibroblasts (ATCC) were cultured in minimal essential medium Eagle's medium (MEM) containing 10% fetal bovine serum and 1% penicillin-streptomycin 6, 20. All fibroblasts were grown to 80% confluence and then switched to serum-free media overnight for experiments.
For activation of protease-activated receptors (PARs), fibroblasts were pretreated with 0.8% DMSO, 10 μM PAR1 agonist TRAP-6 (HY-P0078, MCE), 10 μM PAR2 agonist SLIGKV-NH2 (Protease-Activated Receptor-2, amide, HY-P0283, MCE), or 0.4 μg/ml PAR2-activating protease recombinant cathepsin S (1183-CY-010, R&D Systems) for 30 minutes. For miR205-5p activation, fibroblasts were transfected with (30 picomoles/well) either control (YM00479902) or miR205-5p miRCURY LNA mimic (YM00472340) from Qiagen via Lipofectamine 3000 transfection reagent (L3000001, ThermoFisher) in Opti-MEM (#31985062, ThermoFisher) overnight. […]

[2] = system: Human colonic CCD-18Co fibroblasts; experiment: TGF-β1-induced fibrogenesis in CCD-18Co fibroblasts; assay type: cell-based
Experimental: as §1
For activation of protease-activated receptors (PARs), fibroblasts were pretreated with 0.8% DMSO, 10 μM PAR1 agonist TRAP-6 (HY-P0078, MCE), 10 μM PAR2 agonist SLIGKV-NH2 (Protease-Activated Receptor-2, amide, HY-P0283, MCE), or 0.4 μg/ml PAR2-activating protease recombinant cathepsin S (1183-CY-010, R&D Systems) for 30 minutes. For miR205-5p activation, fibroblasts were transfected with (30 picomoles/well) either control (YM00479902) or miR205-5p miRCURY LNA mimic (YM00472340) from Qiagen via Lipofectamine 3000 transfection reagent (L3000001, ThermoFisher) in Opti-MEM (#31985062, ThermoFisher) overnight. For miR205-5p inhibition, fibroblasts were pretreated with 50nM either control (Y100199006) or miR205-5p power inhibitors (Y104101508-DDA) from Qiagen overnight. For overexpression of zinc finger E-box homeobox 1 (ZEB1), fibroblasts were infected with […] infectious units/plate either control (PS100064V) or human ZEB1-overexpressing lentivirus (RC217704L1V) from Origene, Inc. overnight.
The fibroblasts were pretreated with either 0.1% TFA (vehicle), 10 ng/ml transforming growth factor-beta 1 (TGF-p1), or 100 μg/ml serum exosomes from stricturing CD (CDSE) patients for two hours to induce fibrogenesis, followed by incubation with elafin (AS-61641, Anaspec) for 2-24 hours. Serum exosomes from CD patients were used to mimic the chemical environment of CD [12]. At the end of the experiments, the cells were lysed with either RLT buffer for RNA experiments or radioimmunoprecipitation assay (RIPA) buffer for ProCOL1A1 (DY6220-05, R&D Systems), COL1A2 (MBS2701496, MyBioSource), ZEB1 (MBS774017, MyBioSource), or phosphorylated ERK1/2 (DYC1018B, R&D Systems) ELISAs.

With “Elafin: small (6 kDa) human elastase-specific protease inhibitor and antimicrobial peptide; active form SEQ ID NO: 2 (AQEPVKGPVSTKPGSCPIILIRCAMLNPPNRCLKDTDCPGIKKCCEGSCGMACFVPQ; listed as Homo sapiens)” the overall disease activity (TNBS-treated mice; TNBS models) was 7-11%, the ProCOL1A1 protein expression ([1]; CDSE-treated, Elafin 1 μg/ml) was “inhibited” and the “TGF-β1 induced COL1A2 and ProCOL1A1 protein expression” value ([2]; CCD-18Co, ELISA of cell lysates) was “reversed”. For the same substance, the “TGF-β1-induced COL1A2 (collagen) mRNA expression” value ([2]; TGF-β1 10 ng/ml, elafin (0.1-10 micrograms/ml) added two hours later, 24 hours) was “significantly reduced; also recorded: reversed”, the “ZEB1 mRNA and protein expression” value ([2]; TGF-β1-/CD serum-exosome-treated human colonic fibroblasts) was “decreased; also recorded: diminished” and the miR205-5p expression ([2]; TGF-β1-treated CCD-18Co fibroblasts) was “increased”. For the same substance, the miR205-5p expression ([2]; TGF-β1-treated CCD-18Co fibroblasts, listed as elafin) was “significantly increased”.
In the case of “SLIGKV-NH2 [PAR2 agonist, reference compound]”, the “colonic injury and fibrosis” value (TNBS-treated mice; TNBS-treated mice) is reported as “did not affect”, the “colonic miR205-5p expression” value (TNBS-treated mice; TNBS-treated mice) is reported as “diminished” and the “effect on elafin-mediated inhibition of colonic injury, fibrosis and fibrogenic gene expression” value (TNBS-treated mice; TNBS-treated mice with intracolonic elafin overexpression) is reported as “reversed”. For the same substance, the “effect on elafin-mediated inhibition of collagen expression” value ([1]; CDSE-conditioned primary human colonic fibroblasts) was “reversed”, the “effect on elafin-mediated miR205-5p induction and ZEB1 inhibition” value ([2]; TGF-β1-treated CCD-18Co fibroblasts, agonist 10 μM) was “reversed” and the “effect on elafin-mediated inhibition of collagen expression” value ([2]; TGF-β1-treated CCD-18Co fibroblasts, elafin 1 μg/ml) was “reversed”.
